How the values were obtained:
[1] = tested on: Pseudomonas aeruginosa; test: Inhibition of LasR-dependent quorum sensing activity in Pseudomonas aeruginosa MH602 harboring GFP-fused […] LasB promoter assessed as inhibition of 3-oxo-dodecanoyl HSL-induced GFP expression at 2 mM measured after 8 hrs by fluorescence assay relative to control
[2] = tested on: Pseudomonas aeruginosa; test: Inhibition of LasR-dependent quorum sensing activity in Pseudomonas aeruginosa MH602 harboring GFP-fused […] LasB promoter assessed as inhibition of 3-oxo-dodecanoyl HSL-induced GFP expression at 2 mM measured after 24 hrs by fluorescence assay relative to control
[3] = tested on: Pseudomonas aeruginosa; test: Inhibition of LasR-dependent quorum sensing activity in Pseudomonas aeruginosa MH602 harboring GFP-fused […] LasB promoter assessed as inhibition of 3-oxo-dodecanoyl HSL-induced GFP expression at 1 mM measured after 8 hrs by fluorescence assay relative to control
[4] = tested on: Pseudomonas aeruginosa; test: Inhibition of LasR-dependent quorum sensing activity in Pseudomonas aeruginosa MH602 harboring GFP-fused […] LasB promoter assessed as inhibition of 3-oxo-dodecanoyl HSL-induced GFP expression at 1 mM measured after 24 hrs by fluorescence assay relative to control
[5] = tested on: Pseudomonas aeruginosa; test: Inhibition of LasR-dependent quorum sensing activity in Pseudomonas aeruginosa MH602 harboring GFP-fused […] LasB promoter assessed as inhibition of 3-oxo-dodecanoyl HSL-induced GFP expression at 500 uM measured after 8 hrs by fluorescence assay relative to control
[6] = tested on: Pseudomonas aeruginosa; test: Inhibition of LasR-dependent quorum sensing activity in Pseudomonas aeruginosa MH602 harboring GFP-fused […] LasB promoter assessed as inhibition of 3-oxo-dodecanoyl HSL-induced GFP expression at 500 uM measured after 24 hrs by fluorescence assay relative to control
[7] = tested on: Escherichia coli; test: Inhibition of LuxR-dependent quorum sensing activity in Escherichia coli MT102 harboring pJBA132 assessed as inhibition of OHHL-induced GFP expression at 2 mM measured after 8 hrs by fluorescence assay relative to control
[8] = tested on: Escherichia coli; test: Inhibition of LuxR-dependent quorum sensing activity in Escherichia coli MT102 harboring pJBA132 assessed as inhibition of OHHL-induced GFP expression at 2 mM measured after 24 hrs by fluorescence assay relative to control
[9] = tested on: Escherichia coli; test: Inhibition of LuxR-dependent quorum sensing activity in Escherichia coli MT102 harboring pJBA132 assessed as inhibition of OHHL-induced GFP expression at 1 mM measured after 8 hrs by fluorescence assay relative to control
[10] = tested on: Escherichia coli; test: Inhibition of LuxR-dependent quorum sensing activity in Escherichia coli MT102 harboring pJBA132 assessed as inhibition of OHHL-induced GFP expression at 1 mM measured after 24 hrs by fluorescence assay relative to control
[11] = tested on: Escherichia coli; test: Inhibition of LuxR-dependent quorum sensing activity in Escherichia coli MT102 harboring pJBA132 assessed as inhibition of OHHL-induced GFP expression at 500 uM measured after 8 hrs by fluorescence assay relative to control
[12] = tested on: Escherichia coli; test: Inhibition of LuxR-dependent quorum sensing activity in Escherichia coli MT102 harboring pJBA132 assessed as inhibition of OHHL-induced GFP expression at 500 uM measured after 24 hrs by fluorescence assay relative to control
[13] = tested on: Pseudomonas aeruginosa; test: Growth inhibition of Pseudomonas aeruginosa MH602 at 2 mM after 8 hrs relative to control; settings: MH602, 8 h, read-out: GI
[14] = tested on: Pseudomonas aeruginosa; test: Growth inhibition of Pseudomonas aeruginosa MH602 at 2 mM after 24 hrs relative to control; settings: MH602, 24 h, read-out: GI
[15] = tested on: Pseudomonas aeruginosa; test: Growth inhibition of Pseudomonas aeruginosa MH602 at 1 mM after 8 hrs relative to control; settings: MH602, 8 h, read-out: GI
[16] = tested on: Pseudomonas aeruginosa; test: Growth inhibition of Pseudomonas aeruginosa MH602 at 1 mM after 24 hrs relative to control; settings: MH602, 24 h, read-out: GI
[17] = tested on: Pseudomonas aeruginosa; test: Growth inhibition of Pseudomonas aeruginosa MH602 at 500 uM after 8 hrs relative to control; settings: MH602, 8 h, read-out: GI
[18] = tested on: Pseudomonas aeruginosa; test: Growth inhibition of Pseudomonas aeruginosa MH602 at 500 uM after 24 hrs relative to control; settings: MH602, 24 h, read-out: GI
[19] = tested on: Escherichia coli; test: Growth inhibition of Escherichia coli MT102 at 2 mM after 8 hrs relative to control; settings: MT102, 8 h, read-out: GI
[20] = tested on: Escherichia coli; test: Growth inhibition of Escherichia coli MT102 at 2 mM after 24 hrs relative to control; settings: MT102, 24 h, read-out: GI
[21] = tested on: Escherichia coli; test: Growth inhibition of Escherichia coli MT102 at 1 mM after 8 hrs relative to control; settings: MT102, 8 h, read-out: GI
[22] = tested on: Escherichia coli; test: Growth inhibition of Escherichia coli MT102 at 1 mM after 24 hrs relative to control; settings: MT102, 24 h, read-out: GI
[23] = tested on: Escherichia coli; test: Growth inhibition of Escherichia coli MT102 at 500 uM after 8 hrs relative to control; settings: MT102, 8 h, read-out: GI
[24] = tested on: Escherichia coli; test: Growth inhibition of Escherichia coli MT102 at 500 uM after 24 hrs relative to control; settings: MT102, 24 h, read-out: GI
[25] = tested on: Pseudomonas aeruginosa PA14; test: Inhibition of quorum sensing-regulated pyocyanin production in Pseudomonas aeruginosa PA14 at 2 mM after 24 hrs relative to control
[26] = tested on: Pseudomonas aeruginosa; test: Growth inhibition of Pseudomonas aeruginosa PA14 at 2 mM after 24 hrs relative to control; settings: 2000 µM
[27] = tested on: Pseudomonas aeruginosa PA14; test: Inhibition of quorum sensing-regulated biofilm formation in Pseudomonas aeruginosa PA14 at 2 mM after overnight incubation by crystal violet staining based assay relative to control

Compound | inhibition [5] | inhibition [6] | inhibition [7] | inhibition [8] | inhibition [9] | inhibition [10] | inhibition [11] | inhibition [12] | inhibition at 2000 µM [13] | inhibition at 2000 µM [14] | inhibition at 1000 µM [15] | inhibition at 1000 µM [16] | inhibition at 500 µM [17] | inhibition at 500 µM [18] | inhibition at 2000 µM [19] | inhibition at 2000 µM [20] | inhibition at 1000 µM [21] | inhibition at 1000 µM [22] | inhibition at 500 µM [23] | inhibition at 500 µM [24] | other results
CC(=O)OC[C@H]1O[C@@H](OC(C)=O)[C@H](NC(=O)Cc2ccc(Br)cc2)[C@@H](OC(C)=O)[C@@H]1OC(C)=O | 4.4% | 11.2% | 8.1% | 71.2% | 5.1% | 36.1% | 8.4% | 8.5% | 0% | 0% | 0% | 0% | 0% | 0% | 0% | 0% | 0% | 0% | 0% | 0% | inhibition [1]: 3.2%; inhibition [2]: 13.1%; inhibition [3]: 6.8%; inhibition [4]: 10%; inhibition [25]: 0.8%; growth inhibition (GI) [26]: Non-Toxic; inhibition [27]: 26.2%
CCCC(=O)N[C@@H]1[C@@H](O)[C@H](O)[C@@H](CO)O[C@H]1O | 13.5% | 10.7% | 98.4% | 97.5% | 92.7% | 93.5% | 51.7% | 46.5% | 29.8% | 4.4% | 0% | 0% | 8.9% | 5.9% | 83.6% | 10.7% | 34.5% | 13.9% | 37.9% | 13.5% | inhibition [1]: 79.1%; inhibition [2]: 13.4%; inhibition [3]: 22.5%; inhibition [25]: 10.6%; growth inhibition (GI) [26]: Non-Toxic; inhibition [27]: 22.4%
CC(=O)N[C@@H]1[C@@H](O)[C@H](O)[C@@H](CO)O[C@H]1O [N-ACETYLGLUCOSAMINE] | 16.3% | 13.6% | 86.5% | 96.1% | 85% | 69.3% | 36.2% | 18.8% | 12.5% | 0% | 0% | 0% | 0% | 2.7% | 0% | 10.3% | 7.8% | 0% | 6.1% | 14.7% | inhibition [1]: 81.3%; inhibition [3]: 29.6%; growth inhibition (GI) [26]: Non-Toxic
CC(=O)OC[C@H]1O[C@@H](OC(C)=O)[C@H](NC(=O)Cc2ccc(Cl)cc2)[C@@H](OC(C)=O)[C@@H]1OC(C)=O | 1.4% | 13.3% | 3.7% | 16.5% | 4.2% | 8.5% | 5.2% | 1.3% | 0% | 0% | 0% | 0% | 0% | 3.4% | 0% | 0% | 0% | 0% | 0% | 0% | inhibition [2]: 16.7%; inhibition [4]: 14.8%; inhibition [25]: 9.3%; growth inhibition (GI) [26]: Non-Toxic; inhibition [27]: 17.8%
CCCC(=O)N[C@H]1[C@H](OC(C)=O)O[C@H](COC(C)=O)[C@@H](OC(C)=O)[C@@H]1OC(C)=O | 3.6% | 2.5% | 6.1% | 23.4% | 21.9% | 4.4% | 10.1% | 2.1% | 0% | 0% | 0.9% | 0% | 3.4% | 0% | 0% | 0% | 0% | 5% | 9.4% | 3% | inhibition [1]: 10.8%; inhibition [2]: 22.2%; inhibition [3]: 11%; inhibition [25]: 1.5%; growth inhibition (GI) [26]: Non-Toxic; inhibition [27]: 7.8%

Source: ChEMBL document CHEMBL3875216, “Synthesis of antimicrobial glucosamides as bacterial quorum sensing mechanism inhibitors” (Bioorg Med Chem, 2017)
